{
  "source": "patent US20200383327A1",
  "about": "“METHOD OF IMPROVING PLANT PERFORMANCE” (The State of Israel, Ministry of Agriculture & Rural …, priority 2018, published 2020)",
  "assay_type_in_all_cases": "in vivo",
  "key": {"Botrytis": {"tested_on": "Botrytis", "experiment": "Resistance of petunia plants to Botrytis, increasing Phe concentrations", "protocol": "The effect of treating petunia plants with increased concentrations of Phe was assessed: plants were either sprayed or drenched with increasing concentration of Phe three days prior to infection with Botrytis and on the day of infection. The infected area was followed for 7-10 days after infection."}, "[1]": {"experiment": "Number of flowers and stigmas of Petunia plants", "protocol": "FIGS. 22A-22C are vertical bar graphs showing the effect of Phe solution on the number of flowers per plant. Petunia plants were treated once a week for 5 weeks with Phe solution (2 mM, 6 mM, 15 mM, 35 mM, or none, i.e., control). Numbers of flowers were counted and documented over a period of 7 weeks for Petunia ‘easy-rider’ strain (FIG. 22A) and Petunia ‘white dreams’ strain (FIG. 22B)."}, "Oidium neolycopersici": {"tested_on": "Oidium neolycopersici", "experiment": "Oidium powdery mildew on tomato plants", "details": "24 days after treatment", "protocol": "The Phe (P) solution was applied by spraying and by drench on the tomato plants at 3 days before and 4 hours before incubation in the greenhouse. Incidence of Oidium powdery mildew was evaluated 24 days after treatment. […] The Phe and shatakh 90 solutions were applied by spraying on the tomato plants at 3 days before and 4 hours before incubation in the greenhouse. Incidence of Oidium powdery mildew was evaluated 24 days after treatment.\n(§1) Conidia of Oidium neolycopersici were collected from leaves of a diseased plant, suspended in water and sprayed on the tomato plants. The plants were kept in a greenhouse with 18-28° C. Disease severity of Oidium powdery mildew was evaluated on a scale of 0-100% where 100=whole canopy covered by disease symptoms."}, "Botrytis cinerea": {"tested_on": "Botrytis cinerea", "experiment": "Tomato gray mold severity on leaves of tomato plants", "protocol": "Plants of tomato (Solanum esculentum) and cucumber (Cucumis sativus) were grown from seeds in a nursery and transplanted into 1-liter pots at 40 to 50 days after seeding in an unheated greenhouse. Plants were fertilized proportionally with drippers 2-3 times per day with 5:3:8 NPK fertilizer (irrigation water was planned to have total N, P and K concentrations of 120, 30 and 150 mg/L, respectively; EC 2.2 dS/m), allowing for 25-50% drainage. Plants were maintained at 20 to 30° C. with natural light, and relative humidity of 50-90% in a pest- and disease-free greenhouse during the growth period and then transferred to an area where diseases were allowed to develop following pathogen infection on intact leaves as described below.\nTreatments in experiments were replicated 5-10 times. Replicates of each treatment were arranged randomly. Disease severity data in percentages were arcsin-transformed before further analysis. Disease severity data were analyzed using ANOVA and Fisher's protected LSD test. Standard errors (SE) of the means were calculated and disease levels were statistically separated (P≤0.05) following a one-way analysis of variance. A control experiment presents the severity of the disease with application of only water without the Phe.\nGray mold inducing pathogen Botrytis cinerea [Pers.:Fr. [Teleomorph: Botryotinia fuckeliana (de Bary) Whetzel] (isolate BcI16; [Swartzberg D. et al., Eur. J. Plant Pathol., 2008, 120:289-297])] was cultured on potato dextrose agar (PDA, Difco, Detroit, Mich.) in 90 mm diam. petri dishes containing 15 ml PDA each and incubated at 20° C. The inoculum was maintained on PDA and transferred every two weeks. Gray mold conidia were harvested from 10 to 14-day-old cultures by agitating 1 cm^2 of agar bearing mycelium and conidia in a glass tube with tap water. The suspension was then filtered through cheesecloth. The concentration of conidia was determined using a hemocytometer and a light microscope, and adjusted to 5×10^5 conidia/ml. Since B. cinerea conidia need carbon and phosphate for germination and penetration, 0.1% glucose was added to the final conidial suspension together with 0.1% KH2PO4. […] Plant attached tomato leaves were examined. Whole plants were kept in a humidity chamber at 20±1° C., 97±3% RH, and 1,020 lux light intensity. Plants were infected by spraying the whole plant with 2 ml of a 5×10^5 conidia/ml suspension or were infected after wounding with a needle and dropping 10 μL drops of conidia suspension prepared as mentioned above. Disease severity was evaluated on each plant using a pictorial key; 0=no infection (all leaves are symptomless) and 100=all leaves are fully covered by gray mold symptoms."}, "Oidiopsis sicula": {"tested_on": "Oidiopsis sicula", "experiment": "Oidiopsis powdery mildew on tomato plants", "details": "4 mM Phe solution, drench or spray, each treatment; 24 days after treatment; FIG. 12", "protocol": "FIG. 12 is a bar graph showing the effect of 4 mM Phe solution on the severity of Oidiopsis sicula powdery mildew on tomato plants. The Phe solution was applied by spraying and by drench on the tomato plants at 3 days before and 4 hours before incubation in the greenhouse Incidence of Oidiopsis powdery mildew was evaluated 24 days after treatment.\nas §1, with “Oidiopsis sicula” for “Oidium neolycopersici”, “Oidiopsis” for “Oidium”, “100=all leaves” for “100=whole canopy”"}, "Anthracnose": {"tested_on": "Anthracnose", "experiment": "Anthracnose incidence on harvested avocado after orchard flowering spray", "details": "application during orchard flowering; stored at ambient temperature for 14 days; FIG. 23", "from_the_text": "FIGS. 23A-C: Effect of flowering application on disease incidence. Avocado and Mango cv. ‘Kent’ orchards were sprayed with fungicide (Pyrimethanil+Fludioxonil) or with phenylalanine during flowering. (FIG. 23A). Powdery Mildew incidence (percentage) per inflorescence in mango orchard. (FIG. 23B). Anthracnose incidence (percentage) on harvested mango stored at ambient temperature for 12 days. (FIG. 23CB). Anthracnose incidence (percentage) on harvested avocado stored at ambient temperature for 14 days.\nFlowering is one of the more susceptible organs of the tree. Pathogenic fungi can penetrate during flowering and either infect the flower (e.g., powdery mildew) or endophytically colonize the stem and the fruit without causing any visible symptoms. Those fungi (e.g. Colletotrichum and Lasiodiplodia) become active during abiotic stress or during fruit ripening and cause fruit stem-end rot and anthracnose."}},
  "note": "“Also recorded” adds a separate entry of the source.",
  "data": [
    {"smiles": "N[C@@H](Cc1ccccc1)C(=O)O", "note": "[Phe, Phenylalanine]", "values": [
      {"measurement": "Protection against Botrytis", "setting": "Botrytis; 6 mM Phe, sprayed or drenched, petunia, 7-10 days after infection", "result": "might not be effective enough"},
      {"measurement": "Plant health and pathogen status", "setting": "Botrytis; 15 and 35 mM Phe, drenched, petunia", "result": "healthy, pathogen free"},
      {"measurement": "Resistance to Botrytis", "setting": "Botrytis; 35 and 50 mM Phe, sprayed, petunia, FIG. 7", "result": "much higher resistance to Botrytis"},
      {"measurement": "Phe concentration at which resistance to Botrytis was apparent", "setting": "Botrytis; drenching Phe, FIGS. 8A-8B", "result": "≥ 6", "unit": "mM"},
      {"measurement": "Phe concentration at which resistance to Botrytis was apparent", "setting": "Botrytis; sprayed Phe, FIGS. 7A-7B", "result": "≥ 6", "unit": "mM"},
      {"measurement": "Number of flowers", "setting": "[1]; Phe solution once a week for 5 weeks vs control, FIGS. 22A-22B", "result": "more flowers"},
      {"measurement": "Number of stigmas", "setting": "[1]; Phe solution vs control, FIG. 22C", "result": "more flowers and stigmas; also recorded: more stigmas compared to control"},
      {"measurement": "Severity of Oidium powdery mildew on tomato leaves", "setting": "Oidium neolycopersici; 4 mM Phe solution, drench or spray, each treatment, FIG. 11A", "result": "significantly suppressed"},
      {"measurement": "Severity of Oidium powdery mildew on tomato leaves", "setting": "Oidium neolycopersici; spray, 4 mM Phe, 0.1% Shatah 90, or combination, FIG. 11B", "result": "significantly suppressed"},
      {"measurement": "Disease control effect on severity of tomato gray mold", "setting": "Botrytis cinerea; 4 mM vs 2 mM Phe, drench to the root zone, FIG. 14", "result": "significantly better disease control effect than 2 mM"},
      {"measurement": "Disease control effect on severity of tomato gray mold", "setting": "Botrytis cinerea; 4 mM vs 2 mM Phe, sprayed or drenched, wound infection, 1-4 mM series, FIG. 16", "result": "significantly better disease control effect than 2 mM"},
      {"measurement": "Disease control effect on severity of tomato gray mold", "setting": "Botrytis cinerea; 4 mM vs 2 mM Phe, sprayed or drenched, wound infection, 2-4 mM series, FIG. 17", "result": "significantly better disease control effect than 2 mM"},
      {"measurement": "Disease control effect on severity of tomato gray mold", "setting": "Botrytis cinerea; 4 and 8 mM vs 2 mM Phe, sprayed, FIG. 15", "result": "significantly better disease control effect than 2 mM"},
      {"measurement": "Severity of Oidiopsis powdery mildew on tomato leaves", "setting": "Oidiopsis sicula", "result": "significantly suppressed"},
      {"measurement": "Postharvest anthracnose in avocado", "setting": "Anthracnose", "result": "reduced"}
    ]}
  ]
}
